Measurements taken from patent publication US9732046B2, “Substituted 1,2,4-triazines as tubulin inhibitors” (YM Biosciences Australia Pty Ltd., priority 2003, dated 2017).

Assays:
[1] = target: T1, TelJak3 (BaF3 TELJAK cells, TEL/JAK3 fusion) (Homo sapiens, UniProt P52333); experiment: Cellular growth inhibition assay (MTT), BaF3 TEL:JAK3 cell line; format: cell-based
T1 construct: For JAK3 Sa1 I/Not I cleaved kinase domain PCR product was ligated with BamH I/Sa1 I cleaved TELproduct; expressed in transfected cells; host or cells: BaF3 cells bearing the pTET-off plasmid, transfected with pTELJAK3 (pTRE2 vector); the other entry of the earlier key: ETV6 (P41212, Transcription factor ETV6)
T1 sequence (P52333 with tags, fused parts or gaps): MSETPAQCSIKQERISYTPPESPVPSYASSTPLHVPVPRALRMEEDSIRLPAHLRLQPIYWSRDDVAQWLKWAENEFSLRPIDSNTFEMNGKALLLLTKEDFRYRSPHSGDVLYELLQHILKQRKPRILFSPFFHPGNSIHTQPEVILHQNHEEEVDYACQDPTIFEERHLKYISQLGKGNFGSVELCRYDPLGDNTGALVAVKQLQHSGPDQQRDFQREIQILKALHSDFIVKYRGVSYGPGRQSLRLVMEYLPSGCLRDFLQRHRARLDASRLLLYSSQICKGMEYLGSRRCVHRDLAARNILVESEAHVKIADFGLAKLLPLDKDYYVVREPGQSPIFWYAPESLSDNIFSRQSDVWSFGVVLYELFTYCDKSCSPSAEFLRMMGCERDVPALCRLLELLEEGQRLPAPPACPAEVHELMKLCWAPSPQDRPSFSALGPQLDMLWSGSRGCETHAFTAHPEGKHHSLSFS
Protocol: (§1) For screening purposes, compounds were diluted in 96 well plates at a concentration of 20 μM. Plates were warmed at 37° C. for 30 minutes before assay.
(§2) The coding region encompassing nucleotides 1-487 of TEL was amplified by PCR using the oligonucleotides 5TEL (5′-GGAGGATCCTGATCTCTCTCGCTGTGAGAC-3′) (SEQ ID NO: 1) and 3TEL (5′-AGGC GTCGACTTCTTCTTGATGGTTCTG-3′) (SEQ ID NO: 2) and U937 mRNA as template. A BamH I site was incorporated into the 5TEL primer, and a Sal I site was incorporated into the 3TEL primer. The regions encompassing the kinase domain of JAK2 (nucleotides 2994-3914; JAK2F 5′-ACGC GTCGACGGTGCCTTTGAAGACCGGGAT-3 (SEQ ID NO: 3); JAK2R 5′-ATAGTTTAGCGGCCGCTCAGAATGAAGGTCATTT-3′) (SEQ ID NO: 4) and JAK3 (nucleotides 2520-3469; JAK3F 5′-GAAGTCGACTATGCCTGCCAAGACCCCACGATCTT-3′ (SEQ ID NO: 5); JAK3R 5′-GGATCTAGACTATGAAAAGGACAGGGAGTGGTGTTT-3′ (SEQ ID NO: 6)) were generated by PCR using Taq DNA polymerase (Gibco/BRL) and U937 mRNA as template. A Sal I site was incorporated into the forward primer of JAK2 and JAK3, a Not I site was incorporated into the JAK2 reverse primer and a Xba I site was added to the reverse primer of JAK3.
(§3) A TEL/Jak2 fusion was generated by digestion of the TELPCR product with BamH I/Sa1 I, digestion of the JAK2 PCR product with Sa1 I/Not I followed by ligation and subcloning into the mammalian expression Vector pTRE 2 (Clontech) digested with BamH I-Not I (pTELJAK2). For JAK3 Sa1 I/Not I cleaved kinase domain PCR product was ligated with BamH I/Sa1 I cleaved TELproduct followed by ligation into BamH I/Not I cleaved pTRE2 (pTELJAK3).
(§4) The growth factor dependent myelomonocytic cell line BaF3 bearing the pTET-off plasmid (Clontech) was transfected with either pTELJAK2 or pTELJAK3 and the cells selected for factor independent growth. BaF 3 wild type cells were cultured in DMEM 10% FCS, 10% WEHI 3B conditioned medium. BaF3 TELJAK cells were cultured in DMEM 10% Tet-System Approved FBS (without WEHI 3B conditioned medium).
(§5) Cell suspensions were prepared by harvesting cells from culture. (Cells used in this test should be in later log phase growth and high viability.) Cells were diluted in correct growth medium to 1.1× final concentration (from 50000 cell/mL to 200,000 cell/mL, depending on cell line).
(§6) Compounds to be tested were added (10 μL, 10× final concentration) to a flat bottom 96-well plate. The cellular suspension (90 μL per well) was added, and the plate incubated for 40 hr at 37° C., 5% CO2. MTT (20 μL per well, 5 mg/mL in PBS) was added and the plates were returned to the incubator for a further 6 hours. Lysis buffer (100 μL per well, 10% SDS, 0.01N HCl) was added and the plate stored in the incubator overnight. The plate was then read at 590 nm.

[2] = test system: DU145 (Prostate Cancer); experiment: Cellular growth inhibition assay (MTT), DU145; format: cell-based; settings: Homo sapiens
Protocol: as §1
(§7) K562 (Chronic Myeloid Leukemia), PC3 (Prostate Cancer), and DU145 (Prostate Cancer) were obtained from the American Type Culture Collection (ATCC). K562 was grown in RPMI, with 10% FBS with Glutamx added. DU145 cells were cultured in DMED, with 10% FBS and Glutamx and MEM non-essential amino acids added. PC3 cells were grown in F12K medium, with 10% FBS and Glutamx and MEM non-essential amino acids added. All cells were grown at 37° C. in 5% CO2.
as §5, §6

[3] = target: T2, TelJak2 (BaF3 TELJAK cells, TEL/Jak2 fusion) (Homo sapiens, UniProt O60674); experiment: Cellular growth inhibition assay (MTT), BaF3 TEL:JAK2 cell line; format: cell-based
T2 construct: The regions encompassing the kinase domain of JAK2 (nucleotides 2994-3914); expressed in transfected cells; host or cells: BaF3 cells bearing the pTET-off plasmid, transfected with pTELJAK2 (pTRE2 vector); the other entry of the earlier key: ETV6 (P41212, Transcription factor ETV6)
T2 sequence (O60674 with tags, fused parts or gaps): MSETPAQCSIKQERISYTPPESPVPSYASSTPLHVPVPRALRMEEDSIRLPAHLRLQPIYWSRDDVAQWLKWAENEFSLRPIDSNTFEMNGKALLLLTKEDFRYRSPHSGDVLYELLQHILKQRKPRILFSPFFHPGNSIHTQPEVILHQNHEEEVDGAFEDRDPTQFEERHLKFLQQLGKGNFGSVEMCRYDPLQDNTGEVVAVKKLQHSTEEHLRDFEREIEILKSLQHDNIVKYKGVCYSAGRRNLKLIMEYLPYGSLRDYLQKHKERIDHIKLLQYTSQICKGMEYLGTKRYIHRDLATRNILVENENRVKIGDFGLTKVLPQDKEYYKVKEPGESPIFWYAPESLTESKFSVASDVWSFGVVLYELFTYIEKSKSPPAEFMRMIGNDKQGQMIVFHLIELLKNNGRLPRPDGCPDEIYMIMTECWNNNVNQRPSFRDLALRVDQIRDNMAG
Protocol: as §1, §2, §3, §4, §5, §6

[4] = test system: K562 (Chronic Myeloid Leukemia); experiment: Cellular growth inhibition assay (MTT), K562; format: cell-based; settings: Homo sapiens, Table 1, 40 hr incubation
Protocol: as §1, §7, §5, §6

[5] = test system: PC3 (Prostate Cancer); experiment: Cellular growth inhibition assay (MTT), PC3; format: cell-based; settings: Table 1, 40 hr incubation
Protocol: as §1, §7, §5, §6

[6] = test system: Tubulin (microtubule protein); experiment: Tubulin assay (turbidometric assay of microtubule assembly); format: biochemical; settings: 50 μM, absorbance at 340 nm, 37° C.
Protocol: Turbidometric assays of microtubule assembly were performed by incubating microtubule protein in cuvettes at 37° C. in a thermostatically controlled spectrophotometer measuring the change in absorbance at 340 nm over time. The microtubule protein was incubated with the each test compound at 0° C. and polymerisation was initiated by addition of 1 mM GTP, prior to heating to 37° C.

[7] = DU-145, Table 1, 40 hr incubation
[8] = DU-145, Table 2, 40 hr incubation

Row | Structure (SMILES) | inhibition at 20 µM ([1]; Table 1, 40 hr incubation) [%] | inhibition at 20 µM [2, 7] [%] | inhibition at 20 µM ([3]; Table 1, 40 hr incubation) [%] | inhibition at 20 µM [4] [%] | inhibition at 20 µM [5] [%] | Tubulin inhibition of tubulin polymerisation ([6]; Table 1) | inhibition at 20 µM ([1]; Table 2, 40 hr incubation) [%] | inhibition at 20 µM [2, 8] [%] | inhibition at 20 µM ([3]; Table 2, 40 hr incubation) [%] | Tubulin inhibition of tubulin polymerisation ([6]; Table 2)
1 | CCCC(Nc1cncc(-c2ccc(NC(=O)NCC)c(OC)c2)n1)c1cccnc1C (stereo not drawn) | > 50 | > 50 | > 50 | > 50 | > 50 | + (compounds which inhibited tubulin polymerisation by greater than 50% at 50 μM) |  |  |  | 
2 | CCC[C@H](Nc1cc(-c2ccc(NC(=O)NCC)c(OC)c2)ncn1)c1cccnc1 | > 50 | > 50 | > 50 | > 50 | > 50 | + (compounds which inhibited tubulin polymerisation by greater than 50% at 50 μM) |  |  |  | 
3 | CCCC(Nc1cncc(-c2ccc(OCCCCN(CC)CC)c(OC)c2)n1)c1ccccc1 (stereo not drawn) | > 50 | > 50 | > 50 | > 50 | > 50 | + (compounds which inhibited tubulin polymerisation by greater than 50% at 50 μM) |  |  |  | 
4 | CCC[C@H](Nc1cncc(-c2ccc(NC(=O)NCC)c(OC)c2)n1)c1cccnc1 | > 50 | > 50 | > 50 | > 50 | > 50 | + (compounds which inhibited tubulin polymerisation by greater than 50% at 50 μM) |  |  |  | 
5 | CCCC(Nc1cncc(-c2ccc(NC(=O)NCC)c(OC)c2)n1)c1cccnc1 (stereo not drawn) | > 50 | > 50 | > 50 | > 50 | > 50 | + (compounds which inhibited tubulin polymerisation by greater than 50% at 50 μM) |  |  |  | 
6 | CC[C@H](Nc1cncc(-c2ccc(O)c(OC)c2)n1)c1ccccc1 |  |  |  |  |  |  | > 50 | > 50 | > 50 | + (compounds which inhibited tubulin polymerisation by greater than 50% at 50 μM)
7 | CCCC(Nc1cncc(-c2ccc(OCCCCN)c(OC)c2)n1)c1ccccc1 (stereo not drawn) | > 50 | > 50 | > 50 | > 50 | > 50 | + (compounds which inhibited tubulin polymerisation by greater than 50% at 50 μM) |  |  |  | 
8 | CCNC(=O)Nc1ccc(-c2cncc(N[C@@H](COCC)c3ccccc3)n2)cc1OC | > 50 | > 50 | > 50 | > 50 | > 50 | + (compounds which inhibited tubulin polymerisation by greater than 50% at 50 μM) |  |  |  | 
9 | COc1cc(-c2nccc(N[C@@H](C)c3ccccc3)n2)ccc1O | > 50 | > 50 | > 50 | > 50 | > 50 | + (compounds which inhibited tubulin polymerisation by greater than 50% at 50 μM) |  |  |  | 
10 | COc1cc(-c2cncc(N[C@@H](C)c3ccccc3)c2)ccc1O | > 50 | > 50 | > 50 | > 50 | > 50 | + (compounds which inhibited tubulin polymerisation by greater than 50% at 50 μM) |  |  |  | 
11 | COc1cc(-c2cc(N[C@@H](C)c3ccccc3)ncn2)ccc1O | > 50 | > 50 | > 50 | > 50 | > 50 | + (compounds which inhibited tubulin polymerisation by greater than 50% at 50 μM) |  |  |  | 
12 | CCC[C@H](Nc1cncc(-c2ccc(NC(=O)NCC)c(OC)c2)n1)c1ccccc1 | > 50 | > 50 | > 50 | > 50 | > 50 | + (compounds which inhibited tubulin polymerisation by greater than 50% at 50 μM) |  |  |  | 
13 | COc1cc(-c2cncc(NC(C)c3ccc(-c4cccnc4)cc3)n2)ccc1O (stereo not drawn) |  |  |  |  |  |  | > 50 | > 50 | > 50 | + (compounds which inhibited tubulin polymerisation by greater than 50% at 50 μM)
14 | COc1cc(-c2cncc(NC(C)c3cccc(NC(=O)c4cccnc4)c3)n2)ccc1O (stereo not drawn) [drawing 127] |  |  |  |  |  |  | > 50 | > 50 | > 50 | + (compounds which inhibited tubulin polymerisation by greater than 50% at 50 μM)
15 | COc1cc(-c2cncc(NC(C)c3cccc(NC(=O)c4cccnc4)c3)n2)ccc1O (stereo not drawn) [drawing 124] |  |  |  |  |  |  |  |  |  | + (compounds which inhibited tubulin polymerisation by greater than 50% at 50 μM)
16 | COc1cc(-c2cncc(NC(C)c3cccc(NC(=O)[C@H]4CCCN4)c3)n2)ccc1O (stereo partly drawn) |  |  |  |  |  |  | > 50 | > 50 | > 50 | + (compounds which inhibited tubulin polymerisation by greater than 50% at 50 μM)
17 | COc1cc(-c2cncc(N[C@@H](C)c3ccccc3)n2)ccc1O |  |  |  |  |  |  | > 50 | > 50 | > 50 | + (compounds which inhibited tubulin polymerisation by greater than 50% at 50 μM)
18 | CCCC(Nc1cncc(-c2ccc(NC(=O)C3CCNCC3)c(OC)c2)n1)c1cccnc1 (stereo not drawn) | < 50 | < 50 | > 50 | > 50 | < 50 |  |  |  |  | 
19 | CCCC(Nc1cncc(-c2ccc(OCCCN3CCOCC3)c(OC)c2)n1)c1ccccc1 (stereo not drawn) | > 50 | < 50 | > 50 | > 50 | > 50 |  |  |  |  | 
20 | CCC[C@H](Nc1cncc(-c2ccc(NC(=O)CN(C)C)c(OC)c2)n1)c1cccnc1 | > 50 | > 50 | > 50 | > 50 | > 50 |  |  |  |  | 
